From paper PMC5218480 (PLoS ONE, 2017)

Test system: MV-4-11 cells
Assay: Gene expression microarray analysis (Affymetrix PrimeView) and GSEA
Assay type: cell-based, human
Design: RFU PODN (11730768_x_at) / Fold change /veh PODN (11730768_x_at) / RFU LINC00158 (11744669_a_at) / Fold change /veh LINC00158 (11744669_a_at) / RFU DUSP10 (11751237_a_at) / Fold change /veh DUSP10 (11751237_a_at) / RFU ID3 (11757404_x_at) / Fold change /veh ID3 (11757404_x_at) / RFU PLEKHG5 (11737974_s_at) / Fold change /veh PLEKHG5 (11737974_s_at) / RFU LRRC4B (11730491_at) / Fold change /veh LRRC4B (11730491_at) / RFU GIMAP4 (11747438_a_at) / Fold change /veh GIMAP4 (11747438_a_at) / RFU KRT8 (11758183_x_at) / Fold change /veh KRT8 (11758183_x_at) / RFU CNN1 (11734310_a_at) / Fold change /veh CNN1 (11734310_a_at) / RFU VPS37D (11726825_at) / Fold change /veh VPS37D (11726825_at) / RFU C10orf10 (11716522_x_at) / Fold change /veh C10orf10 (11716522_x_at) / RFU KIR2DL2 /// KIR2DL4 /// KIR2DL5A /// KIR2DL5B /// KIR2DS1 /// KIR2DS2 /// KIR2DS3 /// KIR2DS4 /// KIR3DL3 /// KIR3DL3 /// KIR3DS1 (11738374_at) / Fold change /veh KIR2DL2 /// KIR2DL4 /// KIR2DL5A /// KIR2DL5B /// KIR2DS1 /// KIR2DS2 /// KIR2DS3 /// KIR2DS4 /// KIR3DL3 /// KIR3DL3 /// KIR3DS1 (11738374_at) / RFU C1QL1 (11718748_at) / Fold change /veh C1QL1 (11718748_at) / RFU TMPRSS4 (11747572_a_at) / Fold change /veh TMPRSS4 (11747572_a_at) / RFU HAMP (11756126_x_at) / Fold change /veh HAMP (11756126_x_at) / RFU RNFT2 (11725882_a_at) / Fold change /veh RNFT2 (11725882_a_at) / RFU NR4A2 (11747474_a_at) / Fold change /veh NR4A2 (11747474_a_at) / RFU ABCC12 (11746883_a_at) / Fold change /veh ABCC12 (11746883_a_at) / RFU TMEM136 (11760407_x_at) / Fold change /veh TMEM136 (11760407_x_at) / RFU CLDN22 /// WWC2 (11732394_at) / Fold change /veh CLDN22 /// WWC2 (11732394_at) / RFU HLA-DPB1 (11760878_x_at) / Fold change /veh HLA-DPB1 (11760878_x_at) / RFU SPINT1 (11716480_a_at) / Fold change /veh SPINT1 (11716480_a_at) / RFU GAP43 (11754022_s_at) / Fold change /veh GAP43 (11754022_s_at) / RFU A4GNT (11735810_at) / Fold change /veh A4GNT (11735810_at) / RFU PRB3 (11715151_x_at) / Fold change /veh PRB3 (11715151_x_at) / RFU TUBB4B (11761932_at) / Fold change /veh TUBB4B (11761932_at) / RFU CAPN14 (11732068_a_at) / Fold change /veh CAPN14 (11732068_a_at) / RFU TMCC2 (11721928_a_at) / Fold change /veh TMCC2 (11721928_a_at) / RFU IRGQ (11745062_a_at) / Fold change /veh IRGQ (11745062_a_at) / RFU FAM174B (11720279_a_at) / Fold change /veh FAM174B (11720279_a_at) / RFU TMPRSS4 (11748680_a_at) / Fold change /veh TMPRSS4 (11748680_a_at) / RFU FAM212B (11763350_a_at) / Fold change /veh FAM212B (11763350_a_at) / RFU PLEKHG5 (11743358_a_at) / Fold change /veh PLEKHG5 (11743358_a_at) / RFU ZSCAN30 (11745921_a_at) / Fold change /veh ZSCAN30 (11745921_a_at) / RFU CMKLR1 (11741424_a_at) / Fold change /veh CMKLR1 (11741424_a_at) / RFU LOC101060620 /// MAPK8IP1 (11723275_at) / Fold change /veh LOC101060620 /// MAPK8IP1 (11723275_at) / RFU SPTSSB (11747773_x_at) / Fold change /veh SPTSSB (11747773_x_at) / RFU PRSS12 (11739890_at) / Fold change /veh PRSS12 (11739890_at) / RFU BIN1 (11741810_x_at) / Fold change /veh BIN1 (11741810_x_at) / RFU WNT11 (11732464_a_at) / Fold change /veh WNT11 (11732464_a_at) / RFU C10orf10 (11716521_a_at) / Fold change /veh C10orf10 (11716521_a_at) / RFU C5orf56 (11738089_at) / Fold change /veh C5orf56 (11738089_at) / RFU CYB561 (11721691_x_at) / Fold change /veh CYB561 (11721691_x_at) / RFU ANKRD19P (11752326_a_at) / Fold change /veh ANKRD19P (11752326_a_at) / RFU OR2T12 /// OR2T33 /// OR2T8 (11738714_s_at) / Fold change /veh OR2T12 /// OR2T33 /// OR2T8 (11738714_s_at) / RFU VCAN (11748164_a_at) / Fold change /veh VCAN (11748164_a_at) / RFU JSRP1 (11732532_at) / Fold change /veh JSRP1 (11732532_at) / RFU KRTAP10-11 (11738290_x_at) / Fold change /veh KRTAP10-11 (11738290_x_at) / RFU MYO3A (11730013_a_at) / Fold change /veh MYO3A (11730013_a_at) / RFU EBF3 (11725865_a_at) / Fold change /veh EBF3 (11725865_a_at) / RFU CAMK2N1 (11719241_x_at) / Fold change /veh CAMK2N1 (11719241_x_at) / RFU C5orf56 (11738088_a_at) / Fold change /veh C5orf56 (11738088_a_at) / RFU OLFML3 (11715873_a_at) / Fold change /veh OLFML3 (11715873_a_at) / RFU LOC100653217 /// NTM (11731650_a_at) / Fold change /veh LOC100653217 /// NTM (11731650_a_at) / RFU MAPK11 (11762145_a_at) / Fold change /veh MAPK11 (11762145_a_at) / RFU FIZ1 (11724087_x_at) / Fold change /veh FIZ1 (11724087_x_at) / RFU OASL (11726364_x_at) / Fold change /veh OASL (11726364_x_at) / RFU SOX15 (11748057_x_at) / Fold change /veh SOX15 (11748057_x_at) / RFU CD79A (11719716_a_at) / Fold change /veh CD79A (11719716_a_at) / RFU HIST1H1D (11736915_at) / Fold change /veh HIST1H1D (11736915_at) / RFU CASKIN2 (11723855_a_at) / Fold change /veh CASKIN2 (11723855_a_at) / RFU LOC730098 (11760151_x_at) / Fold change /veh LOC730098 (11760151_x_at) / RFU OR4N2 (11742367_at) / Fold change /veh OR4N2 (11742367_at) / RFU PRRT2 (11749266_a_at) / Fold change /veh PRRT2 (11749266_a_at) / RFU SNX32 (11753110_a_at) / Fold change /veh SNX32 (11753110_a_at) / RFU CDHR5 (11726645_a_at) / Fold change /veh CDHR5 (11726645_a_at) / RFU RCAN1 (11760418_a_at) / Fold change /veh RCAN1 (11760418_a_at) / RFU FAM167A (11723789_a_at) / Fold change /veh FAM167A (11723789_a_at) / RFU FAM26E (11764081_at) / Fold change /veh FAM26E (11764081_at) / RFU ISYNA1 (11749810_s_at) / Fold change /veh ISYNA1 (11749810_s_at) / RFU ACY1 (11761880_at) / Fold change /veh ACY1 (11761880_at) / RFU 11764098_at / Fold change /veh 11764098_at / RFU SAMD14 (11745864_x_at) / Fold change /veh SAMD14 (11745864_x_at) / RFU NPB (11741838_a_at) / Fold change /veh NPB (11741838_a_at) / RFU TMPRSS6 (11731388_a_at) / Fold change /veh TMPRSS6 (11731388_a_at) / RFU KRTAP10-2 (11738614_at) / Fold change /veh KRTAP10-2 (11738614_at) / RFU ARHGAP8 /// PRR5-ARHGAP8 (11727945_x_at) / Fold change /veh ARHGAP8 /// PRR5-ARHGAP8 (11727945_x_at) / RFU KRTAP5-7 /// NADSYN1 (11734609_at) / Fold change /veh KRTAP5-7 /// NADSYN1 (11734609_at) / RFU RASL12 (11751679_a_at) / Fold change /veh RASL12 (11751679_a_at) / RFU CDKN2B (11736163_a_at) / Fold change /veh CDKN2B (11736163_a_at) / RFU PRF1 (11729649_at) / Fold change /veh PRF1 (11729649_at) / RFU, ZNF638 /// ZNF638-IT1 / Fold change vs veh, ZNF638 /// ZNF638-IT1 / RFU, PANK3 / Fold change vs veh, PANK3 / RFU, SH3YL1 / Fold change vs veh, SH3YL1 / RFU, ZEB2 / Fold change vs veh, ZEB2 / RFU, NRIP1 / Fold change vs veh, NRIP1 / RFU, PTTG1IP / Fold change vs veh, PTTG1IP / RFU, CAPN2 / Fold change vs veh, CAPN2 / RFU, MED14 / Fold change vs veh, MED14 / RFU, SNORA58 / Fold change vs veh, SNORA58 / RFU, C1orf63 / Fold change vs veh, C1orf63 / RFU, LRRFIP1 / Fold change vs veh, LRRFIP1 / RFU, NDUFAF7 / Fold change vs veh, NDUFAF7 / RFU, SLC12A2 / Fold change vs veh, SLC12A2 / RFU, IBTK / Fold change vs veh, IBTK / RFU, ESF1 / Fold change vs veh, ESF1 / Fold change vs veh, TMEM50B / RFU, TAOK1 / Fold change vs veh, TAOK1 / RFU, ACBD3 / Fold change vs veh, ACBD3 / RFU, TMA16 / Fold change vs veh, TMA16 / RFU, RWDD3 / Fold change vs veh, RWDD3 / RFU, BCAT1 / Fold change vs veh, BCAT1 / RFU, EDEM3 / Fold change vs veh, EDEM3 / RFU, TMEM33 / Fold change vs veh, TMEM33 / RFU, WDR75 / Fold change vs veh, WDR75 / RFU, AHCTF1 / Fold change vs veh, AHCTF1 / RFU, TFRC / Fold change vs veh, TFRC / RFU, ZDHHC17 / Fold change vs veh, ZDHHC17 / RFU, NOM1 / Fold change vs veh, NOM1 / RFU, ARL8B / Fold change vs veh, ARL8B / RFU, ZBTB11 / Fold change vs veh, ZBTB11 / RFU, TAMM41 / Fold change vs veh, TAMM41 / RFU, KIAA1704 /// LOC100996395 / Fold change vs veh, KIAA1704 /// LOC100996395 / RFU, ING1 / Fold change vs veh, ING1 / RFU, TRMT61B / Fold change vs veh, TRMT61B / RFU, FUBP3 / Fold change vs veh, FUBP3 / RFU, TP53 / Fold change vs veh, TP53 / RFU, TNKS2 / Fold change vs veh, TNKS2 / RFU, ZFP14 / Fold change vs veh, ZFP14 / RFU, ACTR2 / Fold change vs veh, ACTR2 / RFU, PPP3R1 / Fold change vs veh, PPP3R1 / RFU, PIK3R1 / Fold change vs veh, PIK3R1 / RFU, HNRNPA1 / Fold change vs veh, HNRNPA1 / RFU, RNF170 / Fold change vs veh, RNF170 / RFU, ZNF28 / Fold change vs veh, ZNF28 / RFU, RNGTT / Fold change vs veh, RNGTT / RFU, OGT / Fold change vs veh, OGT / RFU, BRD1 / Fold change vs veh, BRD1 / RFU, MARS / Fold change vs veh, MARS / RFU, ZNF655 / Fold change vs veh, ZNF655 / RFU, FAHD1 / Fold change vs veh, FAHD1 / RFU, BDP1 / Fold change vs veh, BDP1 / RFU, LRRCC1 / Fold change vs veh, LRRCC1 / RFU, ARID1A / Fold change vs veh, ARID1A / RFU, ZNF146 / Fold change vs veh, ZNF146 / RFU, ZNF330 / Fold change vs veh, ZNF330 / RFU, GPN3 / Fold change vs veh, GPN3 / RFU, C9orf123 / Fold change vs veh, C9orf123 / RFU, N4BP2L2 / Fold change vs veh, N4BP2L2 / RFU, ARFIP1 / Fold change vs veh, ARFIP1 / RFU, FAM179B / Fold change vs veh, FAM179B / RFU, BCL10 / Fold change vs veh, BCL10 / RFU, UHRF1BP1L / Fold change vs veh, UHRF1BP1L / RFU, BET1 / Fold change vs veh, BET1 / RFU, CNOT2 / Fold change vs veh, CNOT2 / RFU, ZNF268 / Fold change vs veh, ZNF268 / Fold change vs veh, ZNF507 / RFU, DGCR2 / Fold change vs veh, DGCR2 / RFU, WDSUB1 / Fold change vs veh, WDSUB1 / Fold change vs veh, HSP90B1 /// MIR3652 / RFU, ADSS / Fold change vs veh, ADSS / RFU, GK / Fold change vs veh, GK / RFU, ZNF148 / Fold change vs veh, ZNF148 / RFU, TAF9 / Fold change vs veh, TAF9 / RFU, SLC1A5 / Fold change vs veh, SLC1A5 / RFU, SLMO2 / Fold change vs veh, SLMO2 / RFU, ABCC4 / Fold change vs veh, ABCC4 / RFU, LOC101060439 /// RAP1B / Fold change vs veh, LOC101060439 /// RAP1B / RFU, RFX7 / Fold change vs veh, RFX7 / RFU, GTPBP10 / Fold change vs veh, GTPBP10 / RFU, CNEP1R1 / Fold change vs veh, CNEP1R1 / RFU, BIVM-ERCC5 /// ERCC5 / Fold change vs veh, BIVM-ERCC5 /// ERCC5 / RFU, ILF3 / Fold change vs veh, ILF3 / RFU 11762660_at / Fold change /veh 11762660_at / RFU VCAN (11757783_s_at) / Fold change /veh VCAN (11757783_s_at) / RFU DDX43 (11728927_at) / Fold change /veh DDX43 (11728927_at) / RFU KRT8 (11758188_x_at) / Fold change /veh KRT8 (11758188_x_at) / RFU NKD1 (11759106_at) / Fold change /veh NKD1 (11759106_at) / RFU SRD5A1 (11742802_a_at) / Fold change /veh SRD5A1 (11742802_a_at) / RFU TPSAB1 /// TPSB2 (11721975_s_at) / Fold change /veh TPSAB1 /// TPSB2 (11721975_s_at) / RFU GSTM3 (11746129_a_at) / Fold change /veh GSTM3 (11746129_a_at) / RFU IL23R (11737362_x_at) / Fold change /veh IL23R (11737362_x_at) / RFU TMEM51 (11727254_a_at) / Fold change /veh TMEM51 (11727254_a_at) / RFU PIWIL2 (11732686_x_at) / Fold change /veh PIWIL2 (11732686_x_at) / RFU ORM1 (11744905_x_at) / Fold change /veh ORM1 (11744905_x_at) / RFU CCDC152 (11743942_at) / Fold change /veh CCDC152 (11743942_at) / RFU ECM1 (11717891_a_at) / Fold change /veh ECM1 (11717891_a_at) / RFU IL23R (11748794_a_at) / Fold change /veh IL23R (11748794_a_at) / RFU TNFAIP8L3 (11732012_x_at) / Fold change /veh TNFAIP8L3 (11732012_x_at) / RFU MBOAT4 (11741988_at) / Fold change /veh MBOAT4 (11741988_at) / RFU 11764193_at / Fold change /veh 11764193_at / RFU TMEM53 (11763286_at) / Fold change /veh TMEM53 (11763286_at) / RFU MAGEB2 (11727129_at) / Fold change /veh MAGEB2 (11727129_at) / RFU TMEM200A (11744735_a_at) / Fold change /veh TMEM200A (11744735_a_at) / RFU CCDC152 (11751479_a_at) / Fold change /veh CCDC152 (11751479_a_at) / RFU FAM211A (11726209_a_at) / Fold change /veh FAM211A (11726209_a_at) / RFU RGS16 (11746705_a_at) / Fold change /veh RGS16 (11746705_a_at) / RFU VCAN (11755009_s_at) / Fold change /veh VCAN (11755009_s_at) / RFU RHOB (11743442_s_at) / Fold change /veh RHOB (11743442_s_at) / RFU RGS16 (11720943_a_at) / Fold change /veh RGS16 (11720943_a_at) / RFU RGS16 (11720944_at) / Fold change /veh RGS16 (11720944_at) / RFU, VPS4B / Fold change vs veh, VPS4B / RFU, CREB1 / Fold change vs veh, CREB1 / RFU, DNAJC13 / Fold change vs veh, DNAJC13 / RFU, GNAQ / Fold change vs veh, GNAQ / RFU, CDK5R1 / Fold change vs veh, CDK5R1 / RFU, ZRANB3 / Fold change vs veh, ZRANB3 / RFU, CUL4A / Fold change vs veh, CUL4A / RFU, CCNY / Fold change vs veh, CCNY / RFU, UFL1 / Fold change vs veh, UFL1 / RFU, COG3 / Fold change vs veh, COG3 / RFU, DIAPH2 / Fold change vs veh, DIAPH2 / RFU, SKA2 / Fold change vs veh, SKA2 / RFU, AFF3 / Fold change vs veh, AFF3 / RFU, LMF1 / Fold change vs veh, LMF1 / RFU, IPO11 / Fold change vs veh, IPO11 / RFU, DFFB / Fold change vs veh, DFFB / RFU, FOXP1 / Fold change vs veh, FOXP1 / RFU, CARD8 / Fold change vs veh, CARD8 / RFU, STRN3 / Fold change vs veh, STRN3 / RFU, ADK / Fold change vs veh, ADK / RFU, RASSF2 / Fold change vs veh, RASSF2 / RFU, WIPF1 / Fold change vs veh, WIPF1 / RFU, LARP1B / Fold change vs veh, LARP1B / RFU, RASA1 / Fold change vs veh, RASA1 / RFU, RB1 / Fold change vs veh, RB1 / RFU, PPFIA1 / Fold change vs veh, PPFIA1 / RFU, MAT2A / Fold change vs veh, MAT2A / RFU, CCT5 / Fold change vs veh, CCT5 / RFU, WDR92 / Fold change vs veh, WDR92 / RFU, CUX1 / Fold change vs veh, CUX1 / RFU, TTC7A / Fold change vs veh, TTC7A / RFU, TMEM135 / Fold change vs veh, TMEM135 / RFU, DEPTOR / Fold change vs veh, DEPTOR / RFU, CPM / Fold change vs veh, CPM / RFU, DNAJB6 / Fold change vs veh, DNAJB6 / RFU, CACNA2D3 / Fold change vs veh, CACNA2D3 / RFU, DTX4 / Fold change vs veh, DTX4 / RFU, TFCP2 / Fold change vs veh, TFCP2 / RFU, GMCL1 /// GMCL1P1 / Fold change vs veh, GMCL1 /// GMCL1P1 / RFU, AEBP2 / Fold change vs veh, AEBP2 / RFU, SNHG1 /// SNORD22 /// SNORD25 /// SNORD26 /// SNORD27 /// SNORD28 /// SNORD29 /// SNORD31 / Fold change vs veh, SNHG1 /// SNORD22 /// SNORD25 /// SNORD26 /// SNORD27 /// SNORD28 /// SNORD29 /// SNORD31 / Fold change (Aza/veh), C12orf56 (ProbeSet 11735607_a_at) / Fold change (ACY-1035/veh), C12orf56 (ProbeSet 11735607_a_at) / Fold change (Aza/veh), FGFR1OP (ProbeSet 11751329_s_at) / Fold change (ACY-1035/veh), FGFR1OP (ProbeSet 11751329_s_at) / Fold change (Aza/veh), VPS36 (ProbeSet 11739960_a_at) / Fold change (ACY-1035/veh), VPS36 (ProbeSet 11739960_a_at) / RFU SYPL1 (11715823_x_at) / Fold change /veh SYPL1 (11715823_x_at) / RFU IGFBP7 (11715501_s_at) / Fold change /veh IGFBP7 (11715501_s_at) / RFU REEP3 (11722064_at) / Fold change /veh REEP3 (11722064_at) / RFU IGLL1 (11728026_x_at) / Fold change /veh IGLL1 (11728026_x_at): dose or concentration left out as unconfirmed
Conditions: MV-4-11 cells, 48 hours

For `Nc1ncn([C@@H]2O[C@H](CO)[C@@H](O)[C@H]2O)c(=O)n1` [azacitidine], the “Fold change /veh RCAN1 (11760418_a_at)” value was 0.93.
